Results reported in patent publication US12320799B2, “Methods of measuring signaling pathway activity for selection of therapeutic agents” (Celcuity Inc., priority 2017, dated 2025).
Where two headings read alike, the source gives them in different places.

Key:
[1] = system: EGF pathway; assay: Pathway ultrasensitivity test (EC90/EC10 of activator agent), impedance biosensor; format: cell-based, human; conditions: for EC90: read-out: EC90 Concentration
Source text: (§1) Biosensor and transducer: A 96-well impendence E-Plate (ACEA, San Diego, CA) was placed onto an xCELLigence RTCA MP Station impendence biosensor (ACEA, San Diego, CA). The biosensor measured simultaneously the impedance of every well. The change in impedance for a particular well is proportional to the number of cells and type of attachment the cells have with the impedance microplate. Changes in impedance indicate a response to activation of these small cell populations. Coatings: The 96-E-Plate were wells were coated with fibronectin and or collagen. Collagen is purchased from Advanced BioMatrix (Carlsbad, CA) and fibronectin from Sigma-Aldrich (St. Louis, MO). Tissue and cell samples: Five different samples of human cells from breast tumors (R131, R39, R36, R20, R82) and two different samples of human cells from non-small cell lung cancer (NSCLC) tumors were studied (C15 and C23). Any biomarkers that are used to guide selection of targeted therapy are listed in Table 20 for each patient if they were present. Signaling Pathways activator: NRG1, a HER3 agonist, was used to stimulate the HER3 pathway in each of the five breast cancer cell samples. The EC90 and EC10 concentrations of the signaling pathway activator agent were also derived for each breast cancer sample.
(§2) In each of the two NSCLC cell samples, four different activating agents were used to stimulate either the EGF or HER3 pathways. The EC90 and EC10 concentrations of the signaling pathway activator agent were also derived for each NSCLC cell sample.
(§3) Other Reagents: Standard media antibiotics (e.g. penicillin, streptomycin) and other buffers were purchased and used as delivered from ATCC (Manassas, VA, USA) or Life Technologies (Grand Island, NY). Procedure: For each test of a patient cell sample with two different concentrations of signaling pathway activator, six wells were seeded with approximately 15,000 cells in 120 uL culture media. […] The impedance recording of attachment and adhesion change was performed at 37° C., 5% CO2. Data was recorded on a continuous basis throughout the test, where the data presented is from the initial baseline level of cell attachment compared to the subsequent effects following the additions of two concentrations of the signaling pathway activator agent on the 12 different patient samples. Results:
(§4) For each patient cell sample tested, output values were calculated for the signaling pathway activity measured after addition of the two different concentrations of the signaling pathway activator agent. To determine the sensitivity of the signaling pathway to the signaling pathway activator agent, the sensitivity was calculated using the two output values. When the ratio of the EC90 to EC10 is less than 81, the pathway is considered to be ultra-sensitive; otherwise the pathway is considered to be normally sensitive.

[2] = system: HER3 pathway; assay: as above; format: cell-based, human; conditions: for EC90: read-out: EC90 Concentration
Source text: as §1, §2, §3, §4

[3] = NSCLC cell sample C15, EGF pathway
[4] = NSCLC cell sample C23, EGF pathway
[5] = NSCLC cell sample C23, HER3 pathway

Amphiregulin
Pathway Sensitivity Status (normal or ultra) [1, 3]: Ultra (When the ratio of the EC90 to EC10 is less than 81, the pathway is considered to be ultra-sensitive) | Sensitivity Calculation Result (ratio of the EC90 to EC10 of activating agent) [1, 3]: 65.65 | EC10 Concentration ([1]; NSCLC tumor cell sample C15): 0.0457 nM | EC90 ([1]; NSCLC tumor cell sample C15): 3 nM

Betacellulin
Pathway Sensitivity Status (normal or ultra) [1, 3]: Ultra (When the ratio of the EC90 to EC10 is less than 81, the pathway is considered to be ultra-sensitive) | Sensitivity Calculation Result (ratio of the EC90 to EC10 of activating agent) [1, 3]: 41.67 | Pathway Sensitivity Status (normal or ultra) [1, 4]: Ultra (When the ratio of the EC90 to EC10 is less than 81, the pathway is considered to be ultra-sensitive) | Sensitivity Calculation Result (ratio of the EC90 to EC10 of activating agent) [1, 4]: 29.39 | EC10 Concentration ([1]; NSCLC tumor cell sample C15): 0.0024 nM | EC90 ([1]; NSCLC tumor cell sample C15): 0.1 nM | EC10 Concentration ([1]; NSCLC tumor cell sample C23): 0.0066 nM | EC90 ([1]; NSCLC tumor cell sample C23): 0.194 nM

HB-EGF
Pathway Sensitivity Status (normal or ultra) [1, 3]: Ultra (When the ratio of the EC90 to EC10 is less than 81, the pathway is considered to be ultra-sensitive) | Sensitivity Calculation Result (ratio of the EC90 to EC10 of activating agent) [1, 3]: 63.75 | Pathway Sensitivity Status (normal or ultra) [1, 4]: Ultra (When the ratio of the EC90 to EC10 is less than 81, the pathway is considered to be ultra-sensitive) | Sensitivity Calculation Result (ratio of the EC90 to EC10 of activating agent) [1, 4]: 66.67 | EC10 Concentration ([1]; NSCLC tumor cell sample C15): 0.0016 nM | EC90 ([1]; NSCLC tumor cell sample C15): 0.102 nM | EC10 Concentration ([1]; NSCLC tumor cell sample C23): 0.003 nM | EC90 ([1]; NSCLC tumor cell sample C23): 0.2 nM

NRG1
Pathway Sensitivity Status (normal or ultra) [2, 5]: Ultra (When the ratio of the EC90 to EC10 is less than 81, the pathway is considered to be ultra-sensitive) | Sensitivity Calculation Result (ratio of the EC90 to EC10 of activating agent) [2, 5]: 11.19 | EC10 Concentration ([2]; NSCLC tumor cell sample C23): 0.399 nM | EC90 ([2]; NSCLC tumor cell sample C23): 4.46 nM | EC10 Concentration ([2]; breast tumor cell sample R20): 0.236 nM | Pathway Sensitivity Status (normal or ultra) ([2]; breast tumor cell sample R20): Ultra (When the ratio of the EC90 to EC10 is less than 81, the pathway is considered to be ultra-sensitive) | Sensitivity Calculation Result (EC90/EC10 ratio) ([2]; breast tumor cell sample R20): 18.44 | EC90 ([2]; breast tumor cell sample R20): 2.14 nM | EC10 Concentration ([2]; breast tumor cell sample R36): 0.215 nM | Pathway Sensitivity Status (normal or ultra) ([2]; breast tumor cell sample R36): Ultra (When the ratio of the EC90 to EC10 is less than 81, the pathway is considered to be ultra-sensitive) | Sensitivity Calculation Result (EC90/EC10 ratio) ([2]; breast tumor cell sample R36): 27.61 | EC90 ([2]; breast tumor cell sample R36): 1.96 nM | EC10 Concentration ([2]; breast tumor cell sample R39): 0.173 nM | Pathway Sensitivity Status (normal or ultra) ([2]; breast tumor cell sample R39): Ultra (When the ratio of the EC90 to EC10 is less than 81, the pathway is considered to be ultra-sensitive) | Sensitivity Calculation Result (EC90/EC10 ratio) ([2]; breast tumor cell sample R39): 45.96 | EC90 ([2]; breast tumor cell sample R39): 1.6 nM | EC10 Concentration ([2]; breast tumor cell sample R82): 0.193 nM | Pathway Sensitivity Status (normal or ultra) ([2]; breast tumor cell sample R82): Normal (otherwise the pathway is considered to be normally sensitive) | Sensitivity Calculation Result (EC90/EC10 ratio) ([2]; breast tumor cell sample R82): 95.1 | EC90 ([2]; breast tumor cell sample R82): 1.79 nM | EC10 Concentration ([2]; breast tumor cell sample R131): 0.133 nM | Pathway Sensitivity Status (normal or ultra) ([2]; breast tumor cell sample R131): Ultra (When the ratio of the EC90 to EC10 is less than 81, the pathway is considered to be ultra-sensitive) | Sensitivity Calculation Result (EC90/EC10 ratio) ([2]; breast tumor cell sample R131): 38.32 | EC90 ([2]; breast tumor cell sample R131): 1.23 nM

TGF alpha
Pathway Sensitivity Status (normal or ultra) [1, 3]: Ultra (When the ratio of the EC90 to EC10 is less than 81, the pathway is considered to be ultra-sensitive) | Sensitivity Calculation Result (ratio of the EC90 to EC10 of activating agent) [1, 3]: 44.15 | Pathway Sensitivity Status (normal or ultra) [1, 4]: Ultra (When the ratio of the EC90 to EC10 is less than 81, the pathway is considered to be ultra-sensitive) | Sensitivity Calculation Result (ratio of the EC90 to EC10 of activating agent) [1, 4]: 21.25 | EC10 Concentration ([1]; NSCLC tumor cell sample C15): 0.0082 nM | EC90 ([1]; NSCLC tumor cell sample C15): 0.362 nM | EC10 Concentration ([1]; NSCLC tumor cell sample C23): 0.0088 nM | EC90 ([1]; NSCLC tumor cell sample C23): 0.187 nM
